Measurements reported in article PMC5766630, “Non-estrogenic Xanthohumol Derivatives Mitigate Insulin Resistance and Cognitive Impairment in High-Fat Diet-induced Obese Mice” (Scientific Reports, 2018).

Columns and labels:
C2C12 cells = test: Seahorse OCR and ECAR measurements (mitochondrial uncoupling); format: cell-based, mouse; settings: for ECAR after addition of compound: 5 µM final concentration, after oligomycin 1 μM; for Increase of OCR in the presence of oligomycin (uncoupled respiration): 5 µM compound after 1 μM oligomycin, compared to the baseline, five independent experiments
Experimental: OCR and ECAR measurements were performed with a Seahorse XF 24 Analyzer (Agilent Technologies, Inc., Santa Clara, CA, USA). C2C12 cells were plated in culture medium at a density of 40,000 cells per well in a 24-well plate. The cells were then allowed to adhere for 24 h (37 °C, 5% CO2). Prior to the assay, the cells were washed with freshly prepared running medium consisting of Seahorse XF Assay medium (Agilent Technologies, Inc., Santa Clara, CA, USA), 10 mM glucose and 1 mM sodium pyruvate. The pH of the medium was adjusted to 7.4 with 1 M NaOH. The cells were then equilibrated for one hour at 37 °C without CO2. […] To overcome this problem, the test compounds were first dissolved in ethanol and the resulting solution was diluted 100-fold in treatment medium (9 parts XF media and 1 part 10% FBS media) which was added directly to cells. The treatment medium contained 1% FBS and after a further 10-fold dilution into the media in wells, only 0.1% FBS was present during OCR and ECAR measurements. The final concentrations in the wells were: 1 μM for oligomycin, and 5 μM for XN, DXN or TXN. The concentration of oligomycin and the cell density used were selected based on preliminary experiments. Ethanol was added to the control wells not to exceed a final concentration of 0.1% (vehicle control). OCR and ECAR were measured at 9-min intervals.
Seahorse data: to show a consistent baseline, OCR values (in pmol/min/mg protein) and ECAR values (in mpH/min/mg protein) for each value were divided, prior to statistical analysis, by the average of the four pre oligomycin treatment values (0, 8, 17, and 25 min) for the corresponding well and are shown as % pre oligomycin values. To account for repeated measures within wells over time, we utilized a repeated-measures-in-time design using ANOVA procedures in PROC MIXED (SAS). Fixed effects in the model were treatment (control, 5 μM XN, 5 μM DXN, and 5 μM TXN for the compound study), time (0, 8, 17, 25, 34, 43, 52, 60, 69, 78, 86, and 95 min), and their interaction. The random effect was the experiment (5 experiments for the compound study). To account for repeated measures within wells over time, a first order homogeneous variance-covariance matrix [AR(1)] was fitted for each well. Using the ESTIMATE statement, a priori contrasts were constructed by comparing the changes in compound treated cells from the last two time points prior to compound treatment (average 52 and 60 min) to the changes in control cells during the same time-period. This was carried out for each compound and dosage for 69, 78, 86, and 95 min separately and for all four time points combined. Results are shown in the text and the graphs as least squares means and their corresponding SEM (standard error of mean). […]

[1] = tested on: C57BL/6J mice fed a high-fat diet; test: Water maze: spatial learning and memory; format: in vivo, mouse; settings: for Reached platform location faster than control (latency to first cross), probe trial: probe trial 24 h after last hidden platform trial; for Number of mice that spent more time in the correct quadrant than in any other quadrant / Number of mice that reached the platform location within 35 seconds: probe trial; for Number of mice that spent more time in the correct quadrant than in any other quadrant: control 3 out of 12; for Number of mice that reached the platform location within 35 seconds: control 5 out of 12; for Number of mice that reached the hidden platform at least twice within 50 seconds: trials 6 to 8, control 3 out of 12
Experimental: After 13 weeks of feeding the experimental diets, general task learning, spatial learning and memory, and long-term spatial memory retention were tested using the water maze, as previously described[97],[98]. Briefly, the water maze consisted of a circular pool, filled with water (24 °C) made opaque white with non-toxic tempera paint (Prang, Dixon Ticonderoga Company, Heathrow, FL, USA). Spatial cues consisted of figures of geometric shape and other items such as toys and pieces of cloth. The cues were placed on the walls of both the room and the sides of the tank and were present throughout all water maze trials. All trials consisted of a maximum of 60 s in the water searching for the platform and 10 s on the platform. […] Trials on the same day were separated by 10 min. Mice were first trained to locate a visible escape platform (plexiglass circle, 12 cm diameter) submerged 2 cm below the surface of the water, by the use of a cue (a colored cylinder, 2.5 cm radius, 8 cm height) during the visible platform trials (1–2). The location of the platform during visible platform trials was moved between trials to avoid procedural biases in task learning to a specific quadrant. Subsequent to the visible platform training, mice were trained to locate the platform without a visible cue during the hidden platform trials (3–8), which required the mice to rely on extra-maze cues for spatial reference and orientation. To analyze learning curves, time to reach the platform (latency) and swim speeds were assessed. Spatial memory retention was assessed 24 h following the conclusion of the eighth trial of hidden platform training in the probe trial (no platform). For data analysis, the pool was divided conceptually into four quadrants. Time spent searching in the target quadrant compared to the time spent in the three non-target quadrants and the latency to the first crossing of the platform location were analyzed. Following the probe trial, mice were administered two additional visible platform trials. Thigmotaxis, a tendency to remain close the walls, is commonly used as an index of anxiety in mice. For thigmotaxis, we analyzed the time (%) mice spent swimming in the outer part of the pool (<10 cm from edge of pool) during the visible trials. Water maze performance was tracked and analyzed using Ethovision software set at 6 samples/s (Noldus Information Technology, Leesburg, VA). Heat map images were generated using EthoVision Heatmap Generator software and representative images were selected from mice closest to the group mean values for time spent in the quadrant target.
Water maze learning curves: data, except for spatial learning, were analyzed using a one-way ANOVA for single measures within animals and a repeated-measures-in-time design ANOVA for repeated measures within animals. To evaluate spatial learning, we first compared at each session the control versus each XN metabolite group. For further analysis of spatial learning, the first 3 sessions were used for training of spatial learning and the last 3 session for spatial learning. […] To show spatial learning, mice had to reach the platform during the last 3 evaluation sessions at least twice within 50 seconds. Fisher’s exact test was used to compare control versus each XN metabolite group.

HepG2 cells = test: MTT cell viability assay, HepG2; format: cell-based, human; settings: 24 h exposure, vs vehicle-treated control cells
Experimental: For cell viability experiments using the MTT assay, mouse C2C12 skeletal muscle myoblasts (ATCC; Manassas, VA, USA) and the human hepatocyte cell line, HepG2 (ATCC; Manassas, VA, USA), were plated in 96-well plates at a density of 4,000 to 10,000 cells per well in 200 μL of DMEM medium supplemented with 10% FBS, 1% glutamine, 1 mM of sodium pyruvate, 100 units/mL penicillin, and 100 μg/mL streptomycin. After incubating 48 h, the medium was removed and the cells were treated with fresh solutions of various concentrations of XN, DXN or TXN in phenol red-free DMEM plus supplements. The final concentrations of XN, DXN, TXN were 1, 2, 5, 8, 10, 25, or 50 μM, in quadruplicate wells. The plates were then incubated for 1 h (for C2C12) or 24 h for HepG2. After removing the medium, the cells were incubated for 2 h with a 0.5 mg/mL solution of MTT in phenol red-free culture medium. After removing the medium and adding a solution of acidified isopropanol to each well, the absorbance of each well was measured at 570 nm by using a spectrometer (SpectraMax 190, Molecular Devices, Sunnyvale, CA, USA). Cell viability of compound-treated cells was calculated as % absorbance of vehicle-treated control cells (Supplementary Fig. S1a and S1b).

SMILES	ECAR after addition of compound (C2C12 cells)	More time in the correct (Target) quadrant than control ([1]; 60-s probe trial) [%]	Reached hidden platform faster than HFD only, trial 6 ([1]; hidden platform) [%]	Reached hidden platform faster than HFD only, trial 7 ([1]; hidden platform) [%]	Reached hidden platform faster than HFD only, trial 8 ([1]; hidden platform) [%]	Reached platform location faster than control (latency to first cross), probe trial [1] [%]	Number of mice that spent more time in the correct quadrant than in any other quadrant [1]	Number of mice that reached the platform location within 35 seconds [1]	Number of mice that reached the hidden platform at least twice within 50 seconds [1]	HepG2 cell viability (MTT), 1–25 µM (HepG2 cells)	Increase of OCR in the presence of oligomycin (uncoupled respiration) (C2C12 cells) [%]	Reached hidden platform faster than HFD only, average of trials 6 to 8 ([1]; hidden platform) [%]	Reached hidden platform faster than HFD only, first hidden platform trial (trial #3) ([1]; hidden platform trial 3) [%]	Reached visible platform faster than control, first trial ([1]; visible platform trial 1, HFD mice, 30 mg/kg/day, 13 weeks) [%]	Slower swim speed versus HFD only ([1]; during the hidden platform trials) [%]
COc1cc(O)c(CC=C(C)C)c(O)c1C(=O)/C=C/c1ccc(O)cc1 [XN, 3′-[3,3-dimethylallyl]-2′,4′,4-trihydroxy-6′-methoxychalcone]	significant decrease	6.8	47	43	49	45	all but one	all but one	all	did not alter cell viability	–	–	–	–	–
COc1cc(O)c(CCC(C)C)c(O)c1C(=O)CCc1ccc(O)cc1 [TXN, tetrahydroxanthohumol]	significant decrease	–	44	–	35	45	all but one	all but one	all	did not alter cell viability	56.8 ± 6.9	45	18	24	–
COc1cc(O)c(CC=C(C)C)c(O)c1C(=O)CCc1ccc(O)cc1 [DXN, α,β-Dihydroxanthohumol]	significant decrease	–	–	–	–	58	9 out of 12	all but one	9 out of 12	did not alter cell viability	28.7 ± 6.9	28	–	–	10
